Results as given in US20040127428A1, “Use of D-ribose, including as a topical vehicle, to promote faster healing, including from surgical procedures” (priority 2002, published 2004).

How the values were obtained:
actinic keratoses = assay: daily oral intake of D-ribose by the inventor, actinic keratoses; format: in vivo, human; settings: 10 grams of D-ribose by mouth daily, after several months; inventor on themself
From the text: Another use for D-ribose is with certain skin lesions that are the result of solar-caused degeneration of the skin by exposure to the sun. This condition is commonly referred to as actinic keratosis. […] Since 5% of these lesions degenerate into squamous cell carcinomas, the use of ribose alone would be useful. On the other hand, it also may be used as part of a topical formulation. Topical 5-fluorouracil formulations (5-fluorouracil being a pyrimidine analogue with anti-neoplastic action because certain neoplasms incorporate uracil into their ribonucleic acid more readily than in normal cells) have been used to eradicate actinic keratosis in place of “spot” cryosurgery and curettage, with as much as 5% fluorouracil used. Recently there came on the market a new microsphere-based formulation using a microsphere vehicle called Microsponge® in a topical cream containing only 0.5% fluorouracil. It is applied once daily with good results and less than 1/40th the systemic fluorouracil absorption compared to that of 5% fluorouracil. The course of treatment ranged over a 4-week period. While using D-ribose systemically by itself works slowly on presumed, non-malignant actinic keratoses and senile keratoses when malignancy is questioned (as it always must be even with a histological or clinical diagnosis to the contrary), using D-ribose systemically is not enough for every case.

wound or burn = assay: healing of wounds and burns with ribose, alone or with antibiotics; format: in vivo; settings: ribose by itself, taken internally and/or placed on the skin
From the text: TENS devices were part of patent application No. 09/545,121 as one of the non-living source energy devices and how they relate to D-ribose. Shortly before the turn of the 21st century, an important ATP precursor, D-ribose, became commercially available at prices low enough to enable it to be mass marketed. Before this Carniglia, et al, in U.S. Pat. Nos. 4,923,851 and 5,391,550 taught that ribose along with other nutrients helped heal induced skin lesions in mice but only as one of several listed precursors. […] The reason for this is that ribose is not available in quantity in food like other nutrients are. This component of ATP must be synthesized from glucose in the mitochondria in the glucose hexophosphate shunt (also called the pentose phosphate pathway) where a carbon atom is removed tediously by enzymatic action from glucose and phosphorylated over from 72 to 96 hours to provide the phosphorylated ribose radical. […]

Q: O=C[C@H](O)[C@H](O)[C@H](O)CO [D-ribose] was tested. Which “large actinic keratoses on forehead and wrists” value (actinic keratoses) did it give?
A: Its value is “simply disappeared”.

Q: What about the healing (wound or burn) of the same molecule?
A: The healing was “helps healing significantly”.
